Measured values published in ChEMBL document CHEMBL1127988, “Differential binding and dopamine uptake activity of cocaine analogues modified at nitrogen” (Bioorg Med Chem Lett, 1994).

How the values were obtained:
[1] = target: Sodium-dependent dopamine transporter (Rattus norvegicus, UniProt P23977); assay: Binding affinity to inhibit [3H]mazindol binding in rat corpus striatum P2 synaptosomes; type: subcellular
[2] = target: Sodium-dependent dopamine transporter (Rattus norvegicus) (UniProt P23977); assay: Maximum percent inhibition of [3H]mazindol binding in rat corpus striatum P2 synaptosome at 1000 uM; type: tissue-based
Rattus norvegicus [3] = organism: Rattus norvegicus; assay: Inhibitory activity towards [3H]dopamine uptake in rat corpus striatum P2 synaptosomes; type: functional
Rattus norvegicus [4] = organism: Rattus norvegicus; assay: Maximum percent inhibition of dopamine uptake in rat corpus striatum P2 synaptosome at 1000 uM; type: functional
[5] = target: Sodium-dependent dopamine transporter (Rattus norvegicus) (UniProt P23977); conditions: Corpus striatum; 1111 uM
Description: Maximum percent inhibition of [3H]mazindol binding in rat corpus striatum P2 synaptosome at 1111 uM

Sodium-dependent dopamine transporter (Rattus norvegicus), sequence (P23977 whole entry): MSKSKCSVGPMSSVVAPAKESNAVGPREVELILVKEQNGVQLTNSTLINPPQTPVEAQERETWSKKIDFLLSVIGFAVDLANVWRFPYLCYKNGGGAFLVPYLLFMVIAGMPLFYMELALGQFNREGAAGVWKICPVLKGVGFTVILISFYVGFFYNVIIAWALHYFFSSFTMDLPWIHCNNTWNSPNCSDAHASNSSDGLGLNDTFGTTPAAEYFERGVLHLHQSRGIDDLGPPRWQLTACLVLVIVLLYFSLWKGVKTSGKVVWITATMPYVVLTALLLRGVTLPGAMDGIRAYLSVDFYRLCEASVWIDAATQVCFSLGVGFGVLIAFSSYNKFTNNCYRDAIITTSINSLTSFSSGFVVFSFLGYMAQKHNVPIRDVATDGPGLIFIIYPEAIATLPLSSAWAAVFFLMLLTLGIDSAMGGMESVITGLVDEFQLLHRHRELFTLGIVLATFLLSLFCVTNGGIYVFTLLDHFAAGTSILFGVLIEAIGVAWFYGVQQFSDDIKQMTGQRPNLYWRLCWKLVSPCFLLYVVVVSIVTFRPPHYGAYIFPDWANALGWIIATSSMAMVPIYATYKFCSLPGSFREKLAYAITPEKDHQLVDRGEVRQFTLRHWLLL
Sodium-dependent dopamine transporter, sequence (P23977 whole entry): as above

COC(=O)C1C(OC(=O)c2ccccc2)CC2CCC1N2NC(C)=O (centres undefined)
Ki [1]: > 1000 µM
inhibition [2]: 42%
Ki (Rattus norvegicus [3]): > 1000 µM
inhibition (Rattus norvegicus [4]): 41%

COC(=O)C1C(OC(=O)c2ccccc2)CC2CCC1N2CCO (centres undefined)
Ki [1]: 0.7 µM
Ki (Rattus norvegicus [3]): 1.6 µM

COC(=O)C1C(OC(=O)c2ccccc2)CC2CCC1N2CC(=O)O (centres undefined)
Ki [1]: 0.38 µM
Ki (Rattus norvegicus [3]): 2.1 µM

COC(=O)C1C(OC(=O)c2ccccc2)CC2CCC1N2N=O (centres undefined)
Ki [1]: 99.5 µM
inhibition [2]: 82%
Ki (Rattus norvegicus [3]): 232 µM
inhibition (Rattus norvegicus [4]): 77%

COC(=O)C1C(OC(=O)c2ccccc2)CC2CCC1N2[N+](=O)[O-] (centres undefined)
Ki [1]: 7.5 µM
Ki (Rattus norvegicus [3]): 21.2 µM

COC(=O)CN1C2CCC1C(C(=O)OC)C(OC(=O)c1ccccc1)C2 (centres undefined)
Ki [1]: 0.48 µM
Ki (Rattus norvegicus [3]): 1.6 µM

O=C(OC1CC2CCC3C1C(=O)NN23)c1ccccc1 (centres undefined)
Ki [1]: 44.9 µM
Ki (Rattus norvegicus [3]): 115 µM
inhibition [5]: 83%
